Data: ChEMBL document CHEMBL1201862, “PubChem BioAssay data set” (2004)
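These data come from cells grown in 96-well plates and exposed to compound for 48 hours at five concentrations. At the GI50, growth is halved.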 Calls of active or inactive are those of the source. No stated cut-off is given here; in the data, active = GI50 up to about 1.1 µM and inactive = higher.

What was measured:
Test in all cases: NCI tumour cell line growth inhibition, 48 h
[1] = test system: 786-0
[2] = test system: A498
[3] = test system: A549
[4] = test system: ACHN
[5] = test system: BT-549
[6] = test system: CAKI-1
[7] = test system: CCRF-CEM
[8] = test system: COLO 205
[9] = test system: DU-145
[10] = test system: EKVX
[11] = test system: HCT-116
[12] = test system: HCT-15
[13] = test system: HL-60
[14] = test system: HOP-62
[15] = test system: HT-29
[16] = test system: Hs-578T
[17] = test system: IGROV-1
[18] = test system: K562
[19] = test system: KM12
[20] = test system: LOX IMVI
[21] = test system: M14
[22] = test system: MCF7
[23] = test system: MDA-MB-435
[24] = test system: MDA-N
[25] = test system: MOLT-4
[26] = test system: Malme-3M
[27] = test system: NCI-H226
[28] = test system: NCI-H23
[29] = test system: NCI-H460
[30] = test system: NCI/ADR-RES
[31] = test system: OVCAR-3
[32] = test system: OVCAR-4
[33] = test system: OVCAR-5
[34] = test system: OVCAR-8
[35] = test system: PC-3
[36] = test system: RPMI-8226
[37] = test system: RXF 393
[38] = test system: SF-268
[39] = test system: SF-295
[40] = test system: SF-539
[41] = test system: SK-MEL-28
[42] = test system: SK-MEL-2
[43] = test system: SK-MEL-5
[44] = test system: SK-OV-3
[45] = test system: SN12C
[46] = test system: SNB-19
[47] = test system: SNB-75
[48] = test system: SR
[49] = test system: SW-620
[50] = test system: T47D
[51] = test system: TK-10
[52] = test system: U-251
[53] = test system: UACC-257
[54] = test system: UACC-62
[55] = test system: UO-31
[56] = test system: HCC 2998
[57] = test system: HOP-92
[58] = test system: NCI-H522
[59] = test system: MDA-MB-231

## C/C(=N\N=C(/S)N1CC2CCC(CC2)C1)c1ccncn1
[1]
  GI50: 0.0103 µM (active)
[2]
  GI50: 0.291 µM (active)
[3]
  GI50: < 0.01 µM (active)
[4]
  GI50: < 0.01 µM (active)
[5]
  GI50: 0.0512 µM (active)
[6]
  GI50: < 0.01 µM (active)
[7]
  GI50: < 0.01 µM (active)
[8]
  GI50: < 0.01 µM (active)
[9]
  GI50: 0.309 µM (active)
[10]
  GI50: < 0.01 µM (active)
[11]
  GI50: < 0.01 µM (active)
[12]
  GI50: < 0.01 µM
[13]
  GI50: < 0.01 µM (active)
[14]
  GI50: 0.108 µM (active)
[15]
  GI50: < 0.01 µM (active)
[16]
  GI50: 0.914 µM (active)
[17]
  GI50: < 0.01 µM (active)
[18]
  GI50: < 0.01 µM (active)
[19]
  GI50: < 0.01 µM (active)
[20]
  GI50: < 0.01 µM (active)
[21]
  GI50: < 0.01 µM (active)
[22]
  GI50: < 0.01 µM (active)
[23]
  GI50: 0.0703 µM (active)
[24]
  GI50: 0.189 µM (active)
[25]
  GI50: < 0.01 µM (active)
[26]
  GI50: < 0.01 µM (active)
[27]
  GI50: < 0.01 µM (active)
[28]
  GI50: < 0.01 µM (active)
[29]
  GI50: < 0.01 µM (active)
[30]
  GI50: < 0.01 µM (active)
[31]
  GI50: < 0.01 µM (active)
[32]
  GI50: 0.741 µM (active)
[33]
  GI50: 0.213 µM (active)
[34]
  GI50: < 0.01 µM (active)
[35]
  GI50: < 0.01 µM (active)
[36]
  GI50: < 0.01 µM (active)
[37]
  GI50: 0.794 µM (active)
[38]
  GI50: 0.133 µM (active)
[39]
  GI50: < 0.0179 µM (active)
[40]
  GI50: < 0.01 µM (active)
[41]
  GI50: 0.863 µM (active)
[42]
  GI50: 1.19 µM (inactive)
[43]
  GI50: < 0.01 µM (active)
[44]
  GI50: < 0.01 µM (active)
[45]
  GI50: 0.0152 µM (active)
[46]
  GI50: 0.198 µM (active)
[47]
  GI50: 0.221 µM (active)
[48]
  GI50: < 0.01 µM (active)
[49]
  GI50: < 0.01 µM (active)
[50]
  GI50: < 0.01 µM (active)
[51]
  GI50: < 0.01 µM (active)
[52]
  GI50: < 0.01 µM (active)
[53]
  GI50: < 0.01 µM (active)
[54]
  GI50: < 0.01 µM (active)
[55]
  GI50: < 0.01 µM (active)

## S=C1SCN(Cc2ccco2)CN1c1ccc(Br)cc1
[1]
  GI50: 17.1 µM (inactive)
[2]
  GI50: 20 µM (inactive)
[3]
  GI50: 18.5 µM (inactive)
[4]
  GI50: 16 µM (inactive)
[5]
  GI50: 16.7 µM (inactive)
[6]
  GI50: 14.8 µM (inactive)
[7]
  GI50: 16.4 µM (inactive)
[8]
  GI50: 15.8 µM (inactive)
[9]
  GI50: 26.2 µM (inactive)
[10]
  GI50: 18.7 µM (inactive)
[56]
  GI50: 14.5 µM (inactive)
[11]
  GI50: 12.2 µM (inactive)
[12]
  GI50: 8.69 µM
[13]
  GI50: 13.2 µM (inactive)
[14]
  GI50: 23.8 µM (inactive)
[57]
  GI50: 20 µM (inactive)
[15]
  GI50: 13.8 µM (inactive)
[16]
  GI50: 24.8 µM (inactive)
[17]
  GI50: 16.4 µM (inactive)
[18]
  GI50: 2.45 µM (inactive)
[19]
  GI50: 11.1 µM (inactive)
[20]
  GI50: 1.72 µM (inactive)
[21]
  GI50: 13.8 µM (inactive)
[22]
  GI50: 14.6 µM (inactive)
[23]
  GI50: 14.6 µM (inactive)
[24]
  GI50: 16.9 µM (inactive)
[25]
  GI50: 17.4 µM (inactive)
[26]
  GI50: 17.4 µM (inactive)
[27]
  GI50: 25.2 µM (inactive)
[28]
  GI50: 14.7 µM (inactive)
[29]
  GI50: 7.33 µM (inactive)
[58]
  GI50: 10.3 µM (inactive)
[30]
  GI50: 18.3 µM (inactive)
[31]
  GI50: 7.76 µM (inactive)
[32]
  GI50: 13.9 µM (inactive)
[33]
  GI50: 16.8 µM (inactive)
[34]
  GI50: 23.3 µM (inactive)
[35]
  GI50: 16.7 µM (inactive)
[36]
  GI50: 15.4 µM (inactive)
[37]
  GI50: 30.6 µM (inactive)
[38]
  GI50: 13.2 µM (inactive)
[39]
  GI50: 6.98 µM (inactive)
[40]
  GI50: 14.5 µM (inactive)
[41]
  GI50: 17.8 µM (inactive)
[42]
  GI50: 13.6 µM (inactive)
[43]
  GI50: 12.1 µM (inactive)
[44]
  GI50: 25.1 µM (inactive)
[45]
  GI50: 23.4 µM (inactive)
[46]
  GI50: 21.8 µM (inactive)
[47]
  GI50: 37.8 µM (inactive)
[48]
  GI50: 7.6 µM (inactive)
[49]
  GI50: 19.5 µM (inactive)
[50]
  GI50: 20.1 µM (inactive)
[51]
  GI50: 22.8 µM (inactive)
[52]
  GI50: 21.9 µM (inactive)
[53]
  GI50: 15.6 µM (inactive)
[54]
  GI50: 2.94 µM (inactive)
[55]
  GI50: 22.9 µM (inactive)

## Nc1cccc(CCN2CCN(CCCc3ccccc3)CC2)c1
[1]
  GI50: 18.2 µM (inactive)
[2]
  GI50: 47.5 µM (inactive)
[3]
  GI50: 34.4 µM (inactive)
[4]
  GI50: > 100 µM (inactive)
[5]
  GI50: 52.5 µM (inactive)
[6]
  GI50: 53.3 µM (inactive)
[7]
  GI50: 25.8 µM (inactive)
[8]
  GI50: 19.5 µM (inactive)
[9]
  GI50: 55.1 µM (inactive)
[10]
  GI50: > 100 µM (inactive)
[56]
  GI50: 15 µM (inactive)
[11]
  GI50: 17.6 µM (inactive)
[12]
  GI50: 18 µM
[13]
  GI50: 17.2 µM (inactive)
[14]
  GI50: 36.5 µM (inactive)
[57]
  GI50: 4.11 µM (inactive)
[15]
  GI50: 13.7 µM (inactive)
[16]
  GI50: 25.1 µM (inactive)
[17]
  GI50: 37.3 µM (inactive)
[18]
  GI50: 12.9 µM (inactive)
[19]
  GI50: 24.9 µM (inactive)
[20]
  GI50: 18.1 µM (inactive)
[21]
  GI50: 17.6 µM (inactive)
[22]
  GI50: 19.2 µM (inactive)
[59]
  GI50: 36.5 µM (inactive)
[23]
  GI50: 18.6 µM (inactive)
[25]
  GI50: 30.5 µM (inactive)
[26]
  GI50: 21 µM (inactive)
[27]
  GI50: 70 µM (inactive)
[28]
  GI50: 50.2 µM (inactive)
[29]
  GI50: 25.4 µM (inactive)
[58]
  GI50: 16.5 µM (inactive)
[30]
  GI50: > 100 µM (inactive)
[31]
  GI50: 19.4 µM (inactive)
[32]
  GI50: 39.9 µM (inactive)
[33]
  GI50: > 100 µM (inactive)
[34]
  GI50: 22.6 µM (inactive)
[35]
  GI50: 70.1 µM (inactive)
[36]
  GI50: 33.2 µM (inactive)
[37]
  GI50: 21.2 µM (inactive)
[38]
  GI50: 58.2 µM (inactive)
[39]
  GI50: 24.8 µM (inactive)
[40]
  GI50: 22.2 µM (inactive)
[41]
  GI50: 27.5 µM (inactive)
[42]
  GI50: > 100 µM (inactive)
[43]
  GI50: 20.1 µM (inactive)
[44]
  GI50: > 100 µM (inactive)
[45]
  GI50: 95.3 µM (inactive)
[46]
  GI50: > 100 µM (inactive)
[47]
  GI50: > 100 µM (inactive)
[48]
  GI50: 19.2 µM (inactive)
[49]
  GI50: 30.5 µM (inactive)
[50]
  GI50: 20.3 µM (inactive)
[51]
  GI50: 74.1 µM (inactive)
[52]
  GI50: 46.2 µM (inactive)
[53]
  GI50: 24.2 µM (inactive)
[54]
  GI50: 21.8 µM (inactive)
[55]
  GI50: 26.7 µM (inactive)
